Each structure is given as a SMILES string.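 How tested: cells in 96-well plates exposed to compound for 48 hours at five concentrations. The concentration for 50% growth inhibition is given as GI50. At the TGI there is no net growth.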

Common to all, as to experiment: inhibition of tumour cell growth, NCI panel, 48 h
The subject of experiment [1] is NCI-H226 lung.
Experiment [2] relates to K-562 leukemia.
Experiment [3] relates to MOLT-4 leukemia.
Experiment [4] has as its system OVCAR-5 ovarian.
Experiment [5] relates to TK-10 renal.
Experiment [6] deals with ACHN renal.
Experiment [7] concerns SK-MEL-5 melanoma.
Experiment [8] concerns U251 CNS.
For experiment [9], the system named is IGROV1 ovarian.
In experiment [10] the test system is OVCAR-8 ovarian.

Take `N#CC(C(=O)CCC(=O)Nc1cccc(Cl)c1)c1ccccc1` (stereo not drawn): the TGI in experiment [1], in [2], in experiment [3], in experiment [4], in experiment [5] and in [6] was over 100 µM each time. Further, the TGI in [7], in [8], in experiment [9] and in experiment [10] was over 100 µM each time.
Regarding `COc1ccc(-c2n[nH]nc2-c2cc(OC)c3c(c2OC)OCO3)cc1`, the GI50 in experiment [1] is 9.69 µM; in experiment [2], 0.277 µM; in experiment [3], 0.463 µM; in experiment [4] it was 4.68 µM; in [5] it was 4.85 µM; in [6] it was 9.16 µM. Also, the GI50 in experiment [7] is 0.684 µM; in experiment [8], 0.817 µM; in experiment [9] it was 0.885 µM; in experiment [10], 2.02 µM. Also, the TGI is over 92.6 µM in experiment [1]; over 82.4 µM in [2]; 33.1 µM in [3]; over 100 µM in [4]; 79.8 µM in [5]; over 100 µM in [6]. In addition, the TGI in experiment [7] was 17.7 µM; in experiment [8], 11 µM; in experiment [9], over 68 µM; in [10], over 69 µM.
On to `COc1ccc(-c2cc(-c3ccccc3)nc(SCCCC(=O)NO)n2)cc1`, for which the GI50 was 1.68 µM in experiment [1]; 0.762 µM in experiment [2]; 0.758 µM in [3]; 0.979 µM in experiment [4]; 0.369 µM in experiment [5]; 0.356 µM in experiment [6]. In addition, the GI50 was 1.26 µM in experiment [7], 1.12 µM in experiment [8], 1.11 µM in [9] and 0.389 µM in [10]. Besides, the TGI in experiment [1] was found to be 6.08 µM; in experiment [2], 18 µM; in experiment [3] it was 10.9 µM; in experiment [4], 6.09 µM; in experiment [5] it was 9.63 µM; in experiment [6], 1.46 µM. In addition, the TGI is 2.75 µM in experiment [7], 4.22 µM in experiment [8], 3.83 µM in experiment [9] and 19.8 µM in experiment [10].
As for `CCCCCCCCCCCCCCCCCC(=O)OCC(COC1OC(COP(=O)(O)O)C(O)C(O)C1O)OC(=O)CCCCCCCCCCCCCCCCC` (stereo not drawn), the TGI in [1] was determined as 13.3 µM; in experiment [2], 18.7 µM; in [3], 17.3 µM; in experiment [4] it was 11.4 µM; in [5] it was 17.6 µM; in experiment [6] it was 12.7 µM. The TGI came out at 16.6 µM in experiment [7], 14.7 µM in [8], 10.5 µM in [9] and 17.8 µM in [10].
As for `COC1CC(OS(=O)(=O)c2ccc(C)cc2)C(OC(=O)c2ccccc2)C(C)O1` (stereo not drawn), the GI50 in experiment [1], in [2], in experiment [3], in [4], in experiment [5] and in experiment [6] was over 100 µM in each case. Also, the GI50 in experiment [7], in experiment [9] and in [10] was over 100 µM throughout. Moreover, the TGI in [1], in experiment [2], in [3], in [4], in experiment [5] and in [6] was over 100 µM in each case. Moreover, the TGI is over 100 µM in experiment [7], over 10 µM in experiment [8], over 100 µM in [9] and over 100 µM in experiment [10].
`CNC(=O)OCc1c(COC(=O)NC)c(C)n(-c2ccc(Br)cc2)c1C`: the TGI is 4.59 µM in experiment [1]; 95.1 µM in experiment [2]; over 100 µM in [3]; 77.2 µM in experiment [4]; 51.5 µM in experiment [5]; 12.7 µM in experiment [6]. Also, the TGI in experiment [7] is 28.1 µM; in experiment [8], 25.5 µM; in [9], 19.1 µM; in experiment [10], 24.8 µM.
On to `COC(=O)C(Cc1ccccc1)NC(=O)NC(=O)NC(=O)CI` (stereo not drawn), for which the GI50 was 11.1 µM in experiment [1]; 2.09 µM in experiment [2]; 2 µM in experiment [3]; 13 µM in experiment [4]; 4.12 µM in experiment [5]; 1.85 µM in [6]. Besides, the GI50 is 15.5 µM in [7], 16.6 µM in experiment [8], 3.05 µM in experiment [9] and 4.3 µM in [10]. In addition, the TGI worked out at 39.3 µM in [1]; 5.08 µM in experiment [2]; 5.21 µM in [3]; 29.7 µM in [4]; 14.7 µM in experiment [5]; 3.62 µM in experiment [6]. Besides, the TGI was 29 µM in [7], 30.5 µM in experiment [8], 10.1 µM in experiment [9] and 15.9 µM in experiment [10].
Turning to `N#C/C(=C\c1c(-c2ccccc2)[nH]c2ccccc12)S(=O)(=O)c1ccccc1`, the GI50 in experiment [1] is 4.06 µM; in experiment [2], 0.346 µM; in experiment [3], 1.68 µM; in [4], 18.2 µM; in experiment [5] it was 5.08 µM; in experiment [6], 6.65 µM. Besides, the GI50 is 1.82 µM in [7], 2.49 µM in experiment [8], 3.28 µM in experiment [9] and 5.82 µM in experiment [10]. The TGI was 37.8 µM in experiment [1]; over 100 µM in experiment [3]; 98.1 µM in experiment [4]; over 54.3 µM in experiment [5]; 75 µM in experiment [6]; 11.5 µM in [7]. Moreover, the TGI in [8] was 20.1 µM; in experiment [9] it was 25.9 µM; in experiment [10], over 78 µM.
Turning to `COc1cc2c(cc1OC(=O)CC(C)O)C1C(OC2=O)C(OC(C)=O)C=C2CCN(C)[C@H]21` (stereo partly drawn), the TGI in experiment [1] is 65.9 µM; in experiment [2], over 100 µM; in experiment [3] it was over 100 µM; in [4], over 100 µM; in [5], 65.1 µM; in experiment [6], over 100 µM. Further, the TGI is over 100 µM in experiment [7], 61.4 µM in experiment [8], 70.4 µM in experiment [9] and over 100 µM in [10].

These data come from PubChem BioAssay (NCI).
